In the supplement of paper PMC13380429:

Key:
Settings in all cases: 72 h
Caco-2 [1] = test: relative viability EC50 (midpoint between 100% and the lowest measured viability); higher = less toxic
Calu-3 [2] = test: as above
Vero E6 [3] = test: as above
HepG2 [4] = test: as above
U2OS [5] = test: as above
Caco-2 [6] = test: drug sensitivity score (DSS) for viability; higher = more toxic; extreme values may be limits of the assay
Calu-3 [7] = test: as above
Vero E6 [8] = test: as above
HepG2 [9] = test: as above
U2OS [10] = test: as above
Caco-2 [11] = test: cell viability relative to DMSO; higher = less toxic
Calu-3 [12] = test: as above
Vero E6 [13] = test: as above
HepG2 [14] = test: as above
U2OS [15] = test: as above

Row | Structure (SMILES) | relative viability EC50 (Caco-2 [1]) [µM] | relative viability EC50 (Calu-3 [2]) [µM] | relative viability EC50 (Vero E6 [3]) [µM] | relative viability EC50 (HepG2 [4]) [µM] | relative viability EC50 (U2OS [5]) [µM] | drug sensitivity score (Caco-2 [6]) | drug sensitivity score (Calu-3 [7]) | drug sensitivity score (Vero E6 [8]) | drug sensitivity score (HepG2 [9]) | drug sensitivity score (U2OS [10]) | cell viability (Caco-2 [11]; 1 nM) [%] | cell viability (Caco-2 [11]; 10 nM) [%] | cell viability (Caco-2 [11]; 100 nM) [%] | cell viability (Caco-2 [11]; 1000 nM) [%] | cell viability (Caco-2 [11]; 10000 nM) [%] | cell viability (Calu-3 [12]; 1 nM) [%] | cell viability (Calu-3 [12]; 10 nM) [%] | cell viability (Calu-3 [12]; 100 nM) [%] | cell viability (Calu-3 [12]; 1000 nM) [%] | cell viability (Calu-3 [12]; 10000 nM) [%] | cell viability (Vero E6 [13]; 1 nM) [%] | cell viability (Vero E6 [13]; 10 nM) [%] | cell viability (Vero E6 [13]; 100 nM) [%] | cell viability (Vero E6 [13]; 1000 nM) [%] | cell viability (Vero E6 [13]; 10000 nM) [%] | cell viability (HepG2 [14]; 1 nM) [%] | cell viability (HepG2 [14]; 10 nM) [%] | cell viability (HepG2 [14]; 100 nM) [%] | cell viability (HepG2 [14]; 1000 nM) [%] | cell viability (HepG2 [14]; 10000 nM) [%] | cell viability (U2OS [15]; 1 nM) [%] | cell viability (U2OS [15]; 10 nM) [%] | cell viability (U2OS [15]; 100 nM) [%] | cell viability (U2OS [15]; 1000 nM) [%] | cell viability (U2OS [15]; 10000 nM) [%]
1 | C[C@H](NC[C@H](O)CP(=O)(O)Cc1ccccc1)c1ccc(Cl)c(Cl)c1 | > 10 | > 10 | > 10 | > 10 | > 10 | 0 | 0 | 0 | 0 | 0 | 104 | 100 | 95.9 | 99.5 | 89.8 | 102 | 107 | 95.3 | 100 | 106 | 99.4 | 96.8 | 98.1 | 94.8 | 98.1 | 96.9 | 92.4 | 94.8 | 80.1 | 95 | 96.5 | 101 | 94.6 | 97.9 | 94.3
2 | CN1CCCC(n2nc(Cc3ccc(Cl)cc3)c3ccccc3c2=O)CC1 (stereo not given) [azelastine] | > 10 | > 10 | > 10 | > 10 | > 10 | 0 | 0 | 0 | 0.3 | 0 | 95.2 | 91.2 | 98.2 | 94.2 | 87 | 97.1 | 96.7 | 105 | 114 | 92.3 | 108 | 95 | 110 | 103 | 94.9 | 113 | 91.5 | 101 | 89.3 | 89.2 | 104 | 111 | 98.8 | 100 | 93.4
3 | CC(O)COC[C@H]1O[C@@H]2O[C@H]3[C@H](O)[C@@H](O)[C@@H](O[C@H]4[C@H](O)[C@@H](O)[C@@H](O[C@H]5[C@H](O)[C@@H](O)[C@@H](O[C@H]6[C@H](O)[C@@H](O)[C@@H](O[C@H]7[C@H](O)[C@@H](O)[C@@H](O[C@H]8[C@H](O)[C@@H](O)[C@@H](O[C@H]1[C@H](O)[C@H]2O)O[C@@H]8COCC(C)O)O[C@@H]7COCC(C)O)O[C@@H]6COCC(C)O)O[C@@H]5COCC(C)O)O[C@@H]4COCC(C)O)O[C@@H]3COCC(C)O (stereo partly drawn) [hydroxypropyl-beta-cyclodextrin] | > 10 | > 10 | > 10 | > 10 | > 10 | 0 | 0 | 0 | 0 | 0 | 92.3 | 97.1 | 103 | 100 | 95.7 | 100 | 91.5 | 94.8 | 98.8 | 100 | 104 | 96.1 | 102 | 101 | 103 | 98.6 | 97.5 | 98.3 | 95.9 | 98.2 | 97.5 | 98.5 | 104 | 98.2 | 98.4
4 | CCc1ccc(C(=O)C(C)CN2CCCCC2)cc1 (stereo not given) [eperisone] | > 10 | > 10 | > 10 | > 10 | > 10 | 0 | 0 | 0 | 0 | 0 | 98.6 | 106 | 91.7 | 102 | 98.5 | 103 | 93.7 | 87.5 | 101 | 88.8 | 105 | 99.7 | 106 | 103 | 105 | 107 | 95.5 | 95.8 | 95.4 | 100 | 93.6 | 102 | 96.2 | 99.9 | 94.9
5 | CCCCC[C@H](O)/C=C/[C@H]1[C@H](O)CC(=O)[C@@H]1C/C=C\CCCC(=O)O [dinoprostone] | > 10 | > 10 | > 10 | > 10 | > 10 | 0 | 0 | 0 | 0 | 0 | 101 | 104 | 101 | 102 | 95.2 | 96.3 | 90 | 90.2 | 94 | 94.8 | 101 | 107 | 101 | 103 | 94.9 | 99.8 | 104 | 90.4 | 103 | 99 | 101 | 98.2 | 102 | 98.5 | 98.3
6 | C[C@H](N)C(=O)N[C@@H](CCC(N)=O)C(=O)O [dipeptamin] | > 10 | > 10 | > 10 | > 10 | > 10 | 0 | 0 | 0 | 0 | 0 | 97.4 | 104 | 96.5 | 95.2 | 110 | 101 | 98.9 | 94.7 | 95.1 | 103 | 99.5 | 98.1 | 94.1 | 98 | 95.4 | 104 | 93.2 | 95.5 | 100 | 96.1 | 95.9 | 106 | 98.6 | 103 | 98.9
7 | CN1CCN(c2cc3c(cc2F)c(=O)c(C(=O)O)cn3-c2ccc(F)cc2)CC1 [difloxacin] | > 10 | > 10 | > 10 | > 10 | > 10 | 0 | 0 | 0 | 0 | 0 | 92.5 | 95.1 | 102 | 94.7 | 91.1 | 105 | 90.1 | 95.2 | 98.6 | 108 | 109 | 101 | 96.7 | 106 | 99.1 | 93.6 | 110 | 105 | 103 | 93.7 | 92 | 95.4 | 98.9 | 99.1 | 104
8 | C[C@H]1CN(C[C@H](Cc2ccccc2)C(=O)NCC(=O)O)CC[C@@]1(C)c1cccc(O)c1 [alvimopan] | > 10 | > 10 | > 10 | > 10 | > 10 | 0 | 0 | 0 | 0 | 0 | 102 | 91.8 | 93.6 | 107 | 106 | 107 | 91.9 | 104 | 111 | 104 | 90.4 | 96.2 | 94.8 | 95.8 | 104 | 96.8 | 103 | 110 | 99.3 | 104 | 100 | 97.3 | 101 | 104 | 102
9 | COc1cc(O)c2c(c1)C(=O)c1cc(C)cc(O)c1C2=O [rheochrysidin] | > 10 | > 10 | > 10 | > 10 | > 10 | 0 | 0 | 0 | 0 | 0 | 100 | 109 | 97.9 | 96.9 | 93.5 | 101 | 104 | 105 | 101 | 96.8 | 98.9 | 102 | 98.5 | 98.8 | 101 | 92.7 | 106 | 108 | 107 | 109 | 93.4 | 98.8 | 101 | 100 | 93.5
10 | C1COC(NC(C2CC2)C2CC2)=N1 [rilmenidine] | > 10 | > 10 | > 10 | > 10 | > 10 | 0 | 0 | 0 | 0 | 0 | 103 | 100 | 103 | 93.4 | 104 | 98.6 | 82.1 | 109 | 95.8 | 105 | 95.9 | 99.1 | 95.3 | 101 | 97.4 | 99.3 | 110 | 97.2 | 100 | 103 | 104 | 97 | 108 | 98.2 | 104
11 | O=C(O)/C=C/c1ccc(Cn2ccnc2)cc1 [ozagrel] | > 10 | > 10 | > 10 | > 10 | > 10 | 0 | 0 | 0 | 0 | 0 | 92.4 | 101 | 96.7 | 98.6 | 94.9 | 98 | 100 | 99.7 | 106 | 92.3 | 97.5 | 103 | 95.2 | 101 | 101 | 95 | 91.9 | 101 | 95.7 | 100 | 97.8 | 100 | 95.1 | 99.7 | 93.2
12 | COc1cc(C(=O)NCC2(N(C)C)CCCC2)cc(OC)c1OCc1ccccc1 | > 10 | > 10 | > 10 | > 10 | > 10 | 0 | 0.1 | 0 | 0.3 | 0 | 95.5 | 98.1 | 103 | 97.3 | 93.5 | 94.3 | 92.1 | 96.7 | 103 | 85.8 | 104 | 99.9 | 107 | 99.4 | 95.8 | 97.3 | 106 | 101 | 88.8 | 89.6 | 100 | 104 | 97 | 104 | 95.9
13 | Cc1ccc(Cl)c(OCC(O)CNC(C)(C)C)c1 (stereo not given) [bupranolol] | > 10 | > 10 | > 10 | > 10 | > 10 | 0 | 0 | 0 | 0 | 0 | 109 | 89 | 91.5 | 99.5 | 107 | 98.2 | 99.8 | 93.6 | 105 | 104 | 93.6 | 97.5 | 97.2 | 100 | 103 | 99.3 | 97.6 | 104 | 97.8 | 94.6 | 101 | 98.1 | 99.6 | 101 | 104
